Counter-ions that a name gives are not always drawn. Like-named read-outs stand apart in the source and are kept apart here. Values belong to the molecule of their own block, whether it stands above or below them.
What was measured:
[1] = Acute toxicity in mice, seven day values; format: in vivo; conditions: mouse, in vivo, po, male NMRI mice, intragastrally
Procedure: (§1) Investigation of the Acute Toxicity Method:
(§2) The determination of the acute toxicity was carried out on male mice (NMRI) with a body weight of 18 to 23 g. All experimental animals were fasted for 20 hours before commencement of the investigation. Water was available ad libitum. Four animals belonged to each dosage group. The dosage sequence was logarithmic. The test substances were administered either in the form of aqueous solutions or as suspensions in 0.8% Methocel. The administered volumes amounted, in the case of subcutaneous administration, to 10 ml/kg body weight, in the case of intragastral administration to 20 ml/kg body weight.

yeast fever of the rat = assay: Antipyretic action on yeast fever of the rat; format: in vivo; conditions: 12% yeast 20 ml/kg SC, rectal
Procedure: Investigation of the Antipyretic Action on Yeast Fever of the Rat Method: Experimental animals were male rats (SIV 50), fasted for 20 hours, with a body weight of 115-165 g. For the production of an elevated body temperature, the animals received, 18 hours before administration of the test substances, 20 ml/kg body of a 12% dry yeast suspension subcutaneously in two to three depots. A control group received the corresponding volume of physiological NaCl solution injected subcutaneously. Ten animals were used per dosage. After three preliminary measurementds of the body temperature on the experimental day in 30-minute intervals, the test substance was administered intragastrally to the animals treated with yeast. The volume of administration amounted to 20 ml/kg body weight. A second control group treated with yeast, as well as the control group treated the previous day with physiological NaCl solution, received the corresponding vehicle instead of test substance. The body temperature of the experimental animals was measured rectally by means of thermocouple sensor 30, 60 minutes and then, in each case, hourly up to a total of five hours after substance administration.

[2] = tested on: stomach ulcer of the rat induced by indomethacin; assay: Ulcer-protective action on stomach ulcer of the rat induced by indomethacin; format: in vivo; conditions: for Ulcer Inhibition in %: indomethacin 40 mg/kg
Procedure: Investigation of the Ulcer-Protective Action on Stomach Ulcer of the Rat Induced by Indomethacin. Method: Experimental animals were male rats (SIV 50), fasted for 20 hours, with a body weight of 150-200 g. Water was available ad libitum. 40 mg/kg indomethacin and the substance to be tested, as suspension in 0.8% Methocel, were simultaneously administered to the animals intragastrally. The control animals only received the corresponding dosage of indomethacin. Ten animals were used per experimental group. The administration volume amount to 10 ml/kg body weight. The animals were sacrificed five hours after administration. After removal of the stomachs and opening of the curvatura major, these were investigated with a stereo magnifying glass for the presence of ulcers. The assessment of the ulcers took place according to a point scheme proposed by M. Chaumontet et al. (Arzneim.-Forsch., 28, 2119, 1978). The ulcer index was calculated herefrom. The ulcer index of the animals treated with indomethacin and test substance was compared with that of the control animals only treated with indomethacin and the ulcer inhibition calculated therefrom in percent.

[3] = tested on: carrageenin edema of the rat (paw edema); assay: Antiphlogistic action on carrageenin edema of rats; format: in vivo; conditions: 3 h after carrageenin
Procedure: Investigation of the Antiphlogistic Action on Carrageenin Edema of Rats Method: Experimental animals were male rats (SIV 50), fasted for 20 hours, with a body weight of 110-160 g. Water was available ad libitum. After determination of the initial value of the paw volume of the right hind extremity, the test substances were administered intragastrally as suspension in 0.8% Methocel. Ten animals were used per dosage. The volume of administration amounted to 20 ml/kg body weight. The paw volume was measured plethysmometrically. Sixty minutes after intragastral administration of the test substances, 0.1 ml of a 1% carrageenin solution was injected subplanatary into the right hind paw. One and three hours after injection of the carrageenin, the paw volume of the oedematous paw was measured. The increase of the paw volume of the substance-treated animals after three hours was compared with that in the case of the control animals and the inhibition of the paw edema by the test substance was calculated as a percentage thereof.

male mice (NMRI) = assay: Acute toxicity in mice, seven day values; format: in vivo; conditions: intragastrally, 10080 min
Procedure: as §1, §2

[4] = tested on: thrombocyte aggregation (platelet-rich plasma); assay: Collagen-induced thrombocyte aggregation in vitro (rats); format: cell-based, rat; conditions: for IC50: rat PRP, collagen-induced, 3 min incubation, end concentration lowering amplitude by 50%, read-out: C50-value (arith. M. + S.D.)
Procedure: Collagen-Induced Thrombocyte Aggregation In Vitro (Rats) Method: The test was carried out according to the method of BORN (Nature, 194, 927-929, 1962). As blood donors, there served male Sprague-Dawley SIV 50 rats with a body weight of 200 g. The blood sampling took place, under ether narcosis, from the retroorbital venous complex. Nine parts of blood were mixed with one part of 3.8% w/v tri-Na-citrate solution. After low speed centrifuging of the mixture at room temperature, the platelet-rich plasma (PRP, corresponding to erythrocyte-free supernatant) was removed and adjusted to a standard concentration of […]. As measurement instrument, there served an universal aggregometer (Braun, Melsungen), coupled with an Eppendorf photome[…] (Netheler and Hinz, Hamburg). In the investigation, 700 μl amounts of PRP were equilibrated in the aggregometer for five minutes at 37° C. and then mixed with 58 μl of the test substance solution or of a 0.9% NaCl solution (corresponding to the blank). After an incubation time of three minutes, the addition of 35 μl collagen suspension (collagen reagent HORM®, Hormon Chemie, Munchen) initiated the aggregation. A compensation recorder registered, in the following 15 minutes, the change of the transmission. The largest change of the transmission occurring in the period of time was called the amplitude (Amp) of the aggregation curve. Aggregation-inhibiting substances bring about a reduction of this amplitude; the inhibitory action (E) of a substance is calculated according to the following formula: E=[(Amp)blank -[…] ]×100(%) Dosage-action curves are produced on the basis of which their C50 values could be calculated. The C50 value gives the end concentration of a substance in the test system which leads to a lowering of the amplitude by 50%.

Molecule: CCSC1=C(C#N)C(c2ccccc2)(c2ccccc2)C(=O)N1CCCN1CCCCC1.O=C(O)C(=O)O [Compound 15, 2-ethylthio-5-oxo-4,4-diphenyl-1-(3-piperidinopropyl)-2-pyrroline-3-carbonitrile oxalate]
- LD50 at 168 h [1]: 700 mg/kg
- body temperature, 60 (yeast fever of the rat; 60 minutes after 150 mg/kg IG): 36.6 °C
- body temperature, 120 (yeast fever of the rat; 120 minutes after 150 mg/kg IG): 35.8 °C
- body temperature, 180 (yeast fever of the rat; 180 minutes after 150 mg/kg IG): 35.9 °C
- body temperature, 240 (yeast fever of the rat; 240 minutes after 150 mg/kg IG): 36.4 °C
- body temperature, 300 (yeast fever of the rat; 300 minutes after 150 mg/kg IG): 37 °C
- Ulcer Inhibition in % ([2]; 150 mg/kg intragastrally): 29%
- Inhibition of Paw Edema in % ([3]; 150 mg/kg intragastrally): 39%

Molecule: CCSC1=C(C#N)C(c2ccccc2)(c2ccccc2)C(=O)N1CCCN1CCOCC1 [Compound 5, 2-ethylthio-1-(3-morpholinopropyl)-5-oxo-4,4-diphenyl-2-pyrroline-3-carbonitrile]
- LD50 at 168 h [1]: > 1600 mg/kg
- Ulcer Inhibition in % ([2]; 100 mg/kg intragastrally): 52%
- ulcer-protective action ([2]; in words): the most effective representative
- Inhibition of Paw Edema in % ([3]; 37.5 mg/kg intragastrally): 22%
- Inhibition of Paw Edema in % ([3]; 75 mg/kg intragastrally): 45%

Molecule: 1-(2-dimethylaminopropyl)-2-methylthio-5-oxo-4,4-diphenyl-2-pyrroline-3-carbonitrile [Compound 6]
- LD50 (male mice (NMRI)): 1200 mg/kg
- body temperature, 30 (yeast fever of the rat; 30 minutes after 250 mg/kg IG): 37 °C
- body temperature, 60 (yeast fever of the rat; 60 minutes after 250 mg/kg IG): 36 °C
- body temperature, 120 (yeast fever of the rat; 120 minutes after 250 mg/kg IG): 35.2 °C
- body temperature, 180 (yeast fever of the rat; 180 minutes after 250 mg/kg IG): 34.7 °C
- body temperature, 240 (yeast fever of the rat; 240 minutes after 250 mg/kg IG): 35.1 °C
- body temperature, 300 (yeast fever of the rat; 300 minutes after 250 mg/kg IG): 35.6 °C
- IC50 [4]: 190 ± 40 µM
- Inhibition of Paw Edema in % ([3]; 125 mg/kg intragastrally): 36%

Molecule: CCCSC1=C(C#N)C(c2ccccc2)(c2ccccc2)C(=O)N1CCN(CC)CC [Compound 9, 1-(2-Diethylaminoethyl)-5-oxo-4,4-diphenyl-2-propylthio-2-pyrroline-3-carbonitrile]
- Ulcer Inhibition in % ([2]; 250 mg/kg intragastrally): 29%

Molecule: CCSC1=C(C#N)C(c2ccccc2)(c2ccccc2)C(=O)N1CCN1CCCCC1.Cl [Compound 1, 2-Ethylthio-5-oxo-4,4-diphenyl-1-(2-piperidinoethyl)-2-pyrroline-3-carbonitrile hydrochloride]
- LD50 at 168 h [1]: 1600 mg/kg
- Inhibition of Paw Edema in % ([3]; 125 mg/kg intragastrally): 36%

Molecule: CC(C)SC1=C(C#N)C(c2ccccc2)(c2ccccc2)C(=O)N1CCCN(C)C [Compound 8, 2-Isopropylthio-1-(3-dimethylaminopropyl)-5-oxo-4,4-diphenyl-2-pyrroline-3-carbonitrile]
- LD50 at 168 h [1]: 1400 mg/kg
- IC50 ([4]; 0.05 h): 270 ± 50 µM

- IC50 ([4]; 0.05 h): 60 µM
Molecule: CCSC1=C(C#N)C(c2ccccc2)(c2ccccc2)C(=O)N1CCCN [Compound 17a, 1-(3-Aminopropyl)-2-ethylthio-5-oxo-4,4-diphenyl-2-pyrroline-3-carbonitrilehydrochloride]
- aggregation-inhibiting properties ([4]; in words): the most effective representative

Molecule: CSC1=C(C#N)C(c2ccc(N(C)C)cc2)(c2cccnc2)C(=O)N1CCCN(C)C (centres unmarked) [Compound 21, 4-(4-Dimethylaminophenyl)-1-(3-dimethylaminopropyl)-2-methylthio-5-oxo-4-(3-pyridyl)-2-pyrroline-3-carbonitrile]
- LD50 at 168 h [1]: 1200 mg/kg
- IC50 ([4]; 0.05 h): 160 ± 20 µM

Molecule: CSC1=C(C#N)C(c2ccccc2)(c2ccccc2)C(=O)N1CCCN1CCCCC1 [Compound 12, 2-methylthio-5-oxo-4,4-diphenyl-1-(3-piperidinopropyl)-2-pyrroline-3-carbonitrile]
- LD50 at 168 h [1]: > 1600 mg/kg
- IC50 ([4]; 0.05 h): 150 ± 20 µM

- IC50 ([4]; 0.05 h): 140 ± 60 µM
Molecule: CCSC1=C(C#N)C(c2ccccc2)(c2ccccc2)C(=O)N1CCCN(CC)CC [Compound 16, 1-(3-diethylaminopropyl)-2-ethylthio-5-oxo-4,4-diphenyl-2-pyrroline-3-carbonitrile hydrochloride]

- IC50 ([4]; 0.05 h): 150 ± 40 µM
Molecule: CCSC1=C(C#N)C(c2ccccc2)(c2ccccc2)C(=O)N1CCCN(C)C [Compound 3, 2-ethylthio-1-(3-dimethylaminopropyl)-5-oxo-4,4-diphenyl-2-pyrroline-3-carbonitrile hydrochloride]
